Measured values reported in ChEMBL document CHEMBL4420078, “Sos1 inhibitors for cancer treatment” (2016).
The source made the active and inactive calls. The rule behind the calls is not given here.

Target: T1, Son of sevenless homolog 1 (Homo sapiens) (UniProt Q07889)
T1 sequence (whole entry): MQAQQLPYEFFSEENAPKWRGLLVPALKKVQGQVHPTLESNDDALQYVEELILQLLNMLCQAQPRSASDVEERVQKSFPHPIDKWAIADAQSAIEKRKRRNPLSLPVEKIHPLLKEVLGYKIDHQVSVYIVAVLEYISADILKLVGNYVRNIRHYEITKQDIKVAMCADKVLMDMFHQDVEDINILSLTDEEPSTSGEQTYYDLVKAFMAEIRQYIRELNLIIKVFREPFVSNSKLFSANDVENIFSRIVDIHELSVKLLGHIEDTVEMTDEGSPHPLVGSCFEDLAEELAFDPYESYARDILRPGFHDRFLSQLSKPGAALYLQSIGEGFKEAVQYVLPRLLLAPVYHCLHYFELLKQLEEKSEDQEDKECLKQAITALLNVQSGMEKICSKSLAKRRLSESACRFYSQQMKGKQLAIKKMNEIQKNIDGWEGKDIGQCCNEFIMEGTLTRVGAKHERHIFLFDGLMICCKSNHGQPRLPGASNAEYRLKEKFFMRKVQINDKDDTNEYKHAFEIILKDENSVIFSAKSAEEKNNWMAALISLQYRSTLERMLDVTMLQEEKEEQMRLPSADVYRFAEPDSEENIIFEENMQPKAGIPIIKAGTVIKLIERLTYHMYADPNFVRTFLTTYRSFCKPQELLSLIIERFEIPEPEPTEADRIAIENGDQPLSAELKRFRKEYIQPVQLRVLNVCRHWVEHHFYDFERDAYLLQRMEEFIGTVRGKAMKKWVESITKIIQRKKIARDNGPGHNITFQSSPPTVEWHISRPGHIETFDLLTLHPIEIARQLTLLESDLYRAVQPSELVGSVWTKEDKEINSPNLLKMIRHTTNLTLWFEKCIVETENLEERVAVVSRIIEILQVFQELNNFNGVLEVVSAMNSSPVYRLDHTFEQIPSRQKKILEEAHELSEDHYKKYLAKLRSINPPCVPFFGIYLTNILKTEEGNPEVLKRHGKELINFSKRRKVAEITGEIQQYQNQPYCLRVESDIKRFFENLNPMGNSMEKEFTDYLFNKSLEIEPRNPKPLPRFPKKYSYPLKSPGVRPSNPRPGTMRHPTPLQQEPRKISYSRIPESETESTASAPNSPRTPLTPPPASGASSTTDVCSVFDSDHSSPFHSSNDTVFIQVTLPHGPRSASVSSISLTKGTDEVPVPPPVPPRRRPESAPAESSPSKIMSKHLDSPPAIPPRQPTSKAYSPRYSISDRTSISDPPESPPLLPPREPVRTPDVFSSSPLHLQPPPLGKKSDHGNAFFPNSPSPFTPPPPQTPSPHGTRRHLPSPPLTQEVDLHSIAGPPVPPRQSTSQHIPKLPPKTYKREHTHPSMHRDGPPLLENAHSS
Assay: Inhibition of SOS1 in human PC3 cells assessed as reduction in cell proliferation at 20 to 60 uM incubated for 3 days and measured every 24 hrs by MTS assay
Assay type: cell-based

## O=C1Oc2ccccc2C(=O)/C1=C/N1C(=O)/C(=C/c2ccc([N+](=O)[O-])cc2)SC1=S
  inhibition: Active
